This test deals with Chikungunya Virus (CHIKV) strain LR2006-OPY1 with GFP modification (CHIK 5'LR). As to the kind of experiment: microbe, parasite or virus in culture. To be noted: HEK-293T, infected HEK293T cells; for inhibition at 1 µM: compounds at 1 μM, MOI 0.1, 22 h, mean of 2 experiments, values above 100 lowered to 100, read-out: % CHIKV Inhibition Mean (n = 2); for IC50: second round of experiments, range stated for listed compounds, read-out: IC50 (CHIKV inhibition). In kind it is cell-based. On the procedure:
The ability of the compounds to inhibit viral replication was assessed with an experiment in which infected cells were treated by compounds of formula (Ie) at 1 μM. As a positive control for inhibition of Chikungunya, Ribavirin was used. Toxicity of the compounds was assessed in parallel.
Human embryonic kidney cells 293T (HEK293T, CRL-11268) were maintained in Dulbecco's modified Eagle's Medium (DMEM, 31966-021, Thermo Fisher Scientific) supplemented with 10% of fetal bovine serum (FBS), penicillin and streptomycin. After removal of the medium, cells were washed with Ca^2+ and Mg^2+-free salt solution to remove all traces of serum. After aspiration of wash solution, cells were dissociated with 0.25% Trypsin-EDTA solution and incubated 30 s at least in 37° C. incubator. Concentration of cell suspension was determined by an automatic cell counter (EVE, NanoEntek) and, if needed, adjusted to 0.33×10^6 cells/mL with DMEM medium supplemented with 10% FBS.
100 μL of the cell suspension were dispatched in a ViewPlate-96 Black (6005182, PerkinElmer) and in a transparent 96-well cell culture plate (655180, Greiner bio-one). After an incubation for 24 h at 37° C. under 5% of CO2, compounds were added at the proper concentration.
An intermediate dilution was prepared with DMSO (D8418, Sigma) at 2 mM in a 96-well V-bottom microplate from the stock solution:
Mix 1 μL of the 50 mM stock library in 25 μL of DMSO.
Mix 2 μL of the 25 mM stock library in 25 μL of DMSO.
An intermediate dilution was prepared with DMSO (D8418, Sigma) at 25 mM in a 96-well V-bottom microplate from the stock solution:
Mix 2 μL of the 50 mM stock library in 2 μL of DMSO.
Perform serial dilution in 2 μL of DMSO 13 times to reach 0.0015 mM. Proceed as follows in table III:
For both screen and determination of IC50, 1 μL of each solution was added in a 1 mL Masterblock 96 wells (Greiner bio-one, 780261) containing 1 mL of DMEM medium. As a positive control, 5 μL of a 80 mM Ribavirin solution (R9644, Sigma) is added to 1 mL of DMEM. On the other hand, DMSO is used as a negative control.
[…]. Vector Borne Zoonotic Dis. 2006; 6(4)). This modified virus was used to infect cells at MOI 0.1. […].
Medium was removed after 22 h at 37° C. under 5% of CO2 and cells were washed as described above. 60 μL of RIPA buffer (50 mM Tris-HCl pH8, 100 mM NaCl, 1 mM MgCl2, 1% Triton X-100) was added to cells and incubated for at least 20 min before reading fluorescence signal. Pierce 660 nm Protein Assay Reagent (22660, Thermo scientific) was used to normalize fluorescence signal by protein quantity.
• A first round of experiments has been performed wherein the results are expressed as inhibition percentage, which is calculated as follows, through the following steps: • 1. Fluorescence intensity (FI)/Absorbance 660 nm (A660)=A
This ratio allows considering the infection (GFP virus) to the protein amount. • 2. A′=A−background noise of non-infected plate, • 3. B=Fluorescence intensity (FI)/Absorbance 660 nm (A660) of infected but non treated plates, • 4. C=A′/B, which is then converted as the percentage of infection after treatment, compared to non-treated sample, and subsequently as the infection percentage. For instance, a value of 100 in Table IV here below means that, after treatment, the signal attributed to GFP fluorescence is abolished, which is correlated to the absence of infection. • 5. C′=100−C
This value corresponds to the inhibition's percentage.
The following Table IV encompasses said C′ value for some compounds, as calculated above with a mean of 2 experiments, and corresponding standard deviation.
Some values were originally above 100. In these cases, the value has been lowered to 100. This means that some molecules also have an impact on the viability of the cells. In other words, the A value may be lower than the background noise.
Moreover, for each measure, the test was performed with Ribavirin as control. The value of the inhibition percentage was checked, giving 100%.

Take `O=C(NCCC1CCCCC1)c1cccc(Nc2ccc(OCc3ccccn3)cc2)c1` [Compound 38, N-(2-cyclohexylethyl)-3-((4-(pyridin-2-ylmethoxy)phenyl)amino)benzamide]: the inhibition at 1 µM stood at 99%.

Take `Cc1cc(OCc2ccccn2)ccc1Nc1cccc(C(=O)NCCC2CC2)c1` [Compound 45, N-(2-cyclopropylethyl)-3-((2-methyl-4-(pyridin-2-ylmethoxy)phenyl)amino)benzamide]: the inhibition at 1 µM worked out at 99%.

Turning to `Cc1cc(OCc2ccccn2)ccc1Nc1cccc(C(=O)NCCC2CCC2)c1` [Compound 46, N-(2-cyclobutylethyl)-3-((2-methyl-4-(pyridin-2-ylmethoxy)phenyl)amino)benzamide], the inhibition at 1 µM was found to be 99%.

As for `CCCC(C)NC(=O)c1cccc(Nc2ccc(OCc3ccccn3)cc2)c1` (centres unmarked) [Compound 64, N-(pentan-2-yl)-3-((4-(pyridin-2-ylmethoxy)phenyl)amino)benzamide], the IC50 lay in the range of 1 to 400 nM.

For the molecule `Cc1cc(OCc2ccccn2)ccc1Nc1cccc(NC(=O)NCCC(C)C)c1` [Compound 68, 1-isopentyl-3-(3-((2-methyl-4-(pyridin-2-ylmethoxy)phenyl)amino)phenyl)urea], the half-inhibitory concentration (IC50) lay within 1 to 400 nM.

For the origin of these results see patent US12421206B2, “Aryl-n-aryl derivatives for treating a RNA virus infection” (ABIVAX, priority 2018, dated 2025).
